Measured values reported in patent publication US10588952B2, “Conjugate vaccine using trimming function of ERAP1” (SUMITOMO DAINIPPON PHARMA CO., LTD., priority 2013, dated 2020).
Values after ≈ are worked out from the molar mass of the structure shown.

Experiments:
[1] = physchem
Protocol: To prepare a test solution, about 1 mg of a test product was measured and the isotonic buffer (0.5 mL) was added thereto. The prepared solution was shaken at room temperature for 90 min (shaking conditions: RECIPRO SHAKER SR-1N manufactured by TAITEC, Speed=8), centrifuged (15000 rpm, 5 min, room temperature), and the supernatant after centrifugation was used as a test solution.
About 1 mg of the test product was accurately measured, dissolved in 0.1% TFA water/acetonitrile=1/1, made the total amount 10 mL, and this was used as a standard solution of the test product.
The standard solution of the test product and the test solution are analyzed by HPLC (under the analysis conditions described in Table 34), and the solubility of the test product is calculated from the ratio of peak area compared to the standard solution.
column: Chemcopack Quicksorb (4.6 mmφ×150 mm, 5 μm)
manufactured by Chemco Scientific Co., Ltd.
mobile phase: SOLUTION A; 0.1% TFA water, SOLUTION B;
0.1% TFA acetonitrile solution
column temperature: room temperature
detection wavelength: UV 254 nm, 230 nm (2 wavelength detection)
sample injection volume: 10

[2] = target: T1, ERAP1 (Homo sapiens, UniProt Q9NZ08); assay: Test of trimming of N-terminal amino acid by ERAP1 (Experimental Example 10, Examples 85-103); assay type: biochemical; conditions: MAGE-A10 254-262 peptide obtained by ERAP1 trimming; from HPLC AUC
Protocol: The peptides synthesized in Examples 85-103 were evaluated for N-terminal amino acid trimming efficiency using ERAP1. 50 μl of ERAP1 solution (10 μg/ml) in pH 8.0, 20 mM Tris.HCl-100 mM NaCl buffer (Tris.HCl buffer) was added to 142 μl of Tris.HCl buffer. 10 mM peptide solution in DMSO (2.0 μl) and 6.0 μL of DMSO were added to the aforementioned ERAP1 solution, and the mixture was blended well and stood at 30° C. […] The peptide to be obtained by trimming was chemically synthesized separately, and analyzed under similar conditions in the absence of the enzyme. The formation ratio of the peptide [MAGE-A10254-262 peptide ([…]) (SEQ ID NO: 19)] obtained by trimming was determined based on the obtained AUC, and is shown in Tables 45 and 46. […]
(§1) pump: UFLC manufactured by Shimadzu […]
(§2) solution: 0.1% TFA H2O(A)-0.1% TFA CH3CN(B) […]
(§3) detection wavelength: λ=220 nm gradient: concentration of SOLUTION B was raised from 10% to 50% from 0.0 min to 8.5 min

[3] = target: T1, ERAP1; assay: Time-course changes of trimming of N-terminal amino acid by ERAP1 (Experimental Example 2); assay type: biochemical; conditions: peptide obtained by trimming (SEQ ID NO: 53, 43 or 19), ERAP1 solution 0.5 mg/ml, room temperature
Protocol: 20 μl of ERAP1 solution (0.5 mg/ml) in Tris.HCl buffer was added to 172 μl of Tris.HCl buffer. 10 mM peptide solution in DMSO (8.0 μl) was added to the aforementioned ERAP1 solution, and the mixture was blended well and stood at room temperature. […]
pump: UFLC manufactured by Shimadzu column: Shim-pack XR-ODS 3.0 mmi.d.×75 mm solution: 0.05% TFA H2O(A)-0.05% TFA CH3CN(B) […]
detection wavelength: λ=220 nm gradient: Concentration of SOLUTION B was raised from 1.0% 70% from 0.0 min to 5.0 min […]
The peptide to be obtained by the trimming of the N-terminal amino acid(s) by ERAP1 is, […]

[4] = target: T1, ERAP1; assay: Test of trimming of N-terminal amino acid by ERAP1 (Experimental Example 9, Examples 69-84); assay type: biochemical; conditions: MAGE-A10 254-262 peptide obtained by ERAP1 trimming; from HPLC AUC;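 further: peptide incubated with ERAP1 for 1 h before HPLC analysis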
Protocol: The peptides synthesized in Examples 69-84 were evaluated for N-terminal amino acid trimming efficiency using ERAP1. 50 μl of ERAP1 solution (10 μg/ml) in pH 8.0, 20 mM Tris.HCl-100 mM NaCl buffer (Tris.HCl buffer) was added to 142 μl of Tris.HCl buffer. 10 mM peptide solution in DMSO (2.0 μl) and 6.0 μL of DMSO were added to the aforementioned ERAP1 solution, and the mixture was blended well and stood at 30° C. […] The peptide obtained by trimming was chemically synthesized separately, and analyzed under similar conditions in the absence of the enzyme. […]
as §1, §2, §3

T1 sequence (Q9NZ08 whole entry): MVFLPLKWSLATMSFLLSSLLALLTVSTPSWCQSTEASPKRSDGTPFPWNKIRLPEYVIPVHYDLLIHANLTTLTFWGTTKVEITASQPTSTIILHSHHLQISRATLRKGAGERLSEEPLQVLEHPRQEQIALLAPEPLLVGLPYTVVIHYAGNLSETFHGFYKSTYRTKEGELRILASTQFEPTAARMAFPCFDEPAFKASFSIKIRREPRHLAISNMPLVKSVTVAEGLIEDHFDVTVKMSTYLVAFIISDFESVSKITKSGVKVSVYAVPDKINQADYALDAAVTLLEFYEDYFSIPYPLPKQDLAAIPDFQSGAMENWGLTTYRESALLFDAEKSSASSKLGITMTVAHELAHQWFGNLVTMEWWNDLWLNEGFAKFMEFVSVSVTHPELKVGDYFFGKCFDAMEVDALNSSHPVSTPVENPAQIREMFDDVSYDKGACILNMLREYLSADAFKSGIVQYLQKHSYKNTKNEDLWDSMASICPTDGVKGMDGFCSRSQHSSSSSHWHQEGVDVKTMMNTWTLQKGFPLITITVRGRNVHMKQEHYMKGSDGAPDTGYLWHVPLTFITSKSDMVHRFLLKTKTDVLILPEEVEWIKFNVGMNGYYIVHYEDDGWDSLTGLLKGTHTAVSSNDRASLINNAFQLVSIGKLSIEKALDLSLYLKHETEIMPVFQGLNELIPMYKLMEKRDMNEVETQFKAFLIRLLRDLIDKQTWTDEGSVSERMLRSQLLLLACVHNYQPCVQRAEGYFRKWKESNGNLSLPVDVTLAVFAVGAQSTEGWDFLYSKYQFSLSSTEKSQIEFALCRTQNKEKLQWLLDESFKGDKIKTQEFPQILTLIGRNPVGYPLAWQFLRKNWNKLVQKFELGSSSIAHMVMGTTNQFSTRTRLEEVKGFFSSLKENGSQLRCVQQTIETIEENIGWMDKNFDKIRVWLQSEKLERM

Row | Compound | formation rate of GLYDGMEHL (SEQ ID NO: 19) [2] [%] | formation rate of GLYDGMEHL (SEQ ID NO: 19) [4] [%] | other results
1 | CC[C@H](C)[C@H](NC(=O)[C@H](CCCCN)NC(=O)[C@@H](N)CSSC[C@H](N)C(=O)NCC(=O)N[C@@H](CC(C)C)C(=O)N[C@@H](Cc1ccc(O)cc1)C(=O)N[C@@H](CC(=O)O)C(=O)NCC(=O)N[C@@H](CCSC)C(=O)N[C@@H](CCC(=O)O)C(=O)N[C@@H](Cc1c[nH]cn1)C(=O)N[C@@H](CC(C)C)C(=O)O)C(=O)N[C@@H](Cc1ccccc1)C(=O)NCC(=O)N[C@@H](CO)C(=O)N[C@@H](CC(C)C)C(=O)N[C@@H](C)C(=O)N[C@@H](Cc1ccccc1)C(=O)N[C@@H](CC(C)C)C(=O)O [Example 29] | – | – | solubility thermodynamic at 90 min ([1]; pH 6): 170 µg/mL (≈ 76.1 µM); solubility thermodynamic at 90 min ([1]; pH 7.4): > 1000 µg/mL
2 | CC[C@H](C)[C@H](NC(=O)[C@H](CCCCN)NC(=O)[C@@H](N)CSSC[C@H](N)C(=O)N[C@H](C)C(=O)N[C@@H](CCCCN)C(=O)N[C@@H](Cc1ccccc1)C(=O)N[C@H](C(=O)N[C@@H](C)C(=O)N[C@@H](C)C(=O)N[C@@H](Cc1c[nH]c2ccccc12)C(=O)N[C@H](C(=O)N[C@@H](CC(C)C)C(=O)N[C@@H](CCCCN)C(=O)N[C@@H](C)C(=O)N[C@@H](C)C(=O)N[C@H](C)C(=O)O)[C@@H](C)O)C(C)C)C(=O)N[C@@H](Cc1ccccc1)C(=O)NCC(=O)N[C@@H](CO)C(=O)N[C@@H](CC(C)C)C(=O)N[C@@H](C)C(=O)N[C@@H](Cc1ccccc1)C(=O)N[C@@H](CC(C)C)C(=O)O [Example 112] | – | – | solubility thermodynamic at 90 min ([1]; pH 6): < 1 µg/mL; solubility thermodynamic at 90 min ([1]; pH 7.4): 2 µg/mL (≈ 0.785 µM)
3 | CC[C@H](C)[C@H](NC(=O)[C@H](CCCCN)NC(=O)[C@@H](N)CSSC[C@H](NC(=O)[C@@H](C)NC(=O)[C@H](C)NC(=O)[C@H](C)NC(=O)[C@H](CCCCN)NC(=O)[C@H](CC(C)C)NC(=O)[C@@H](NC(=O)[C@H](Cc1c[nH]c2ccccc12)NC(=O)[C@H](C)NC(=O)[C@H](C)NC(=O)[C@@H](NC(=O)[C@H](Cc1ccccc1)NC(=O)[C@H](CCCCN)NC(=O)[C@@H](C)N)C(C)C)[C@@H](C)O)C(=O)O)C(=O)N[C@@H](Cc1ccccc1)C(=O)NCC(=O)N[C@@H](CO)C(=O)N[C@@H](CC(C)C)C(=O)N[C@@H](C)C(=O)N[C@@H](Cc1ccccc1)C(=O)N[C@@H](CC(C)C)C(=O)O [Example 113] | – | – | solubility thermodynamic at 90 min ([1]; pH 6): < 1 µg/mL; solubility thermodynamic at 90 min ([1]; pH 7.4): 2 µg/mL (≈ 0.785 µM)
4 | H-ACGLYDGMEHL-OH [Example 92] | 5.2 | – | –
5 | H-CAGLYDGMEHL-OH [Example 26] | – | – | formation rate(%) 1 hr later [3]: 87.8%; formation rate(%) 2 hr later [3]: 99.4%; formation rate(%) 4 hr later [3]: 103%; formation rate(%) 8 hr later [3]: 97.5%
6 | H-CAVLQELNVTV-OH [Example 22] | – | – | formation rate(%) 1 hr later [3]: 46.1%; formation rate(%) 2 hr later [3]: 49.9%; formation rate(%) 4 hr later [3]: 51.3%; formation rate(%) 8 hr later [3]: 53.5%
7 | H-CDGLYDGMEHL-OH [Example 83] | – | 25.0 | –
8 | H-CEGLYDGMEHL-OH [Example 70] | – | 6.2 | –
9 | H-CFGLYDGMEHL-OH [Example 75] | – | 0.0 | –
10 | H-CGGLYDGMEHL-OH [Example 71] | – | 0.0 | –
11 | H-CHGLYDGMEHL-OH [Example 72] | – | 0.0 | –
12 | H-CIGLYDGMEHL-OH [Example 73] | – | 0.4 | –
13 | H-CKGLYDGMEHL-OH [Example 74] | – | 0.0 | –
14 | H-CLGLYDGMEHL-OH [Example 27] | – | – | formation rate(%) 1 hr later [3]: 58.3%; formation rate(%) 2 hr later [3]: 94.9%; formation rate(%) 4 hr later [3]: 88.4%; formation rate(%) 8 hr later [3]: 88.3%
15 | H-CLVLQELNVTV-OH [Example 23] | – | – | formation rate(%) 1 hr later [3]: 31.1%; formation rate(%) 2 hr later [3]: 36.9%; formation rate(%) 4 hr later [3]: 38.1%; formation rate(%) 8 hr later [3]: 36.1%
16 | H-CMGLYDGMEHL-OH [Example 28] | – | – | formation rate(%) 1 hr later [3]: 90.6%; formation rate(%) 2 hr later [3]: 103%; formation rate(%) 4 hr later [3]: 96.0%; formation rate(%) 8 hr later [3]: 101%
17 | H-CMVLQELNVTV-OH [Example 24] | – | – | formation rate(%) 1 hr later [3]: 28.7%; formation rate(%) 2 hr later [3]: 34.5%; formation rate(%) 4 hr later [3]: 36.5%; formation rate(%) 8 hr later [3]: 36.8%
18 | H-CNGLYDGMEHL-OH [Example 82] | – | 82.2 | –
19 | H-CPGLYDGMEHL-OH [Example 76] | – | 0.0 | –
20 | H-CQGLYDGMEHL-OH [Example 69] | – | 56.9 | –
21 | H-CRGLYDGMEHL-OH [Example 81] | – | 0.0 | –
22 | H-CSGLYDGMEHL-OH [Example 84] | – | 1.1 | –

Row | Compound | formation rate of GLYDGMEHL (SEQ ID NO: 19) [2] [%] | formation rate of GLYDGMEHL (SEQ ID NO: 19) [4] [%] | other results
23 | H-CTGLYDGMEHL-OH [Example 77] | – | 89.4 | –
24 | H-CVGLYDGMEHL-OH [Example 80] | – | 0.0 | –
25 | H-CWGLYDGMEHL-OH [Example 78] | – | 0.0 | –
26 | H-CYGLYDGMEHL-OH [Example 79] | – | 0.0 | –
27 | H-DCGLYDGMEHL-OH [Example 95] | 3.2 | – | –
28 | H-ECGLYDGMEHL-OH [Example 96] | 2.9 | – | –
29 | H-FCGLYDGMEHL-OH [Example 103] | 17.6 | – | –
30 | H-GCGLYDGMEHL-OH [Example 97] | 10.4 | – | –
31 | H-HCGLYDGMEHL-OH [Example 98] | 0.0 | – | –
32 | H-ICGLYDGMEHL-OH [Example 99] | 0.0 | – | –
33 | H-KCGLYDGMEHL-OH [Example 101] | 0.0 | – | –
34 | H-LCGLYDGMEHL-OH [Example 100] | 0.0 | – | –
35 | H-MCGLYDGMEHL-OH [Example 102] | 5.8 | – | –
36 | H-NCGLYDGMEHL-OH [Example 94] | 18.2 | – | –
37 | H-PCGLYDGMEHL-OH [Example 86] | 19.2 | – | –
38 | H-QCGLYDGMEHL-OH [Example 85] | 3.6 | – | –
39 | H-RCGLYDGMEHL-OH [Example 93] | 0.0 | – | –
40 | H-SCGLYDGMEHL-OH [Example 87] | 22.2 | – | –
41 | H-TCGLYDGMEHL-OH [Example 88] | 7.3 | – | –
42 | H-VCGLYDGMEHL-OH [Example 91] | 2.4 | – | –
43 | H-WCGLYDGMEHL-OH [Example 89] | 0.0 | – | –
44 | H-YCGLYDGMEHL-OH [Example 90] | 5.7 | – | –
